The text below walks through data of patent US7556939B2, “Identification and characterization of racemases, definition of protein signatures, and a test for detecting D-amino acid and for screening molecules capable of inhibiting the activity of racemase, especially proline racemase” (Institut Pasteur, priority 2003, dated 2009).

Broadly, the Km is the substrate concentration at which the rate is half of its maximum. Broadly, the pKi is the Ki on a negative log10 scale, so that one unit is a factor of ten. Usually pIC50 stands for −log10 of the IC50, conventionally taken in molar units.

pIC50, pKi: −log10 of the molar value. Values joined by “and” are separate entries in the source; they are usually repeats but may differ in a detail not shown here. Identical values can stand only once.

The test system of one series is TcPRAC enzyme isoforms. Conditions: span over the enzyme isoforms. How it is done:
(§1) Optical rotation was measured every 5 sec during 10 min and every 5 min to 1 hour. […] Calculations were done using the Kaleïdagraph program. […] Graphic representation and linear curve regression allowed the determination of Ki as [PAC]/[(slope with PAC/slope without PAC)−1]. All reagents were purchased from Sigma.

In a further series the target is T1, D-AAO (Sus scrofa, UniProt P00371).
T1 construct: purchased Sigma A-5222; host or cells: swine kidney
The series can be described thus: D-AAO/HRP reaction on D-proline in presence of PAC or L-proline. The series is classed as biochemical, swine.

A further series addresses T2, CsPR (Acetoanaerobium sticklandii, UniProt E3PTZ4).
T2 sequence (E3PTZ4 1-335): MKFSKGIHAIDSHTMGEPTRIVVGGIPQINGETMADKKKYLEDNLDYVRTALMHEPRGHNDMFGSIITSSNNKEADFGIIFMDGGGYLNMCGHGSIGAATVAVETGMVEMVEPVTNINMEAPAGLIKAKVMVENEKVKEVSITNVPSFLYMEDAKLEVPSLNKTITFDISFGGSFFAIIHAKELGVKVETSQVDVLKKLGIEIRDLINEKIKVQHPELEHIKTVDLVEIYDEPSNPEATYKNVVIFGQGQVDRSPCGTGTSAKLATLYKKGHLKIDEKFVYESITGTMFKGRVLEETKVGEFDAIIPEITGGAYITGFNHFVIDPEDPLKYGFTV
The note with it: reported for the proline racemase of C. sticklandii; cited from earlier work.

For another series, the target named is T3, rTcPRACA (Trypanosoma cruzi, UniProt Q4DA80).
T3 construct: resulting TcPRACA* fragment encoding for the mature proline racemase was purified and cloned; His6 (C); made in house; host or cells: E. coli BL21 (DE3)
As to the kind of experiment: Kinetic and inhibition assays of L-proline racemization, polarimetric. The series is classed as biochemical. How it is done:
(§2) The progress of racemization reaction was monitored polarimetrically, as previously described (13). […] Values obtained were confirmed by using the Kaleïdagraph® program and Michaelis-Menten equation. […] C.
as §1

For a further series, the target named is rTcPRACB (Trypanosoma cruzi, UniProt Q868H8). Described as above. The format is biochemical. As for the experimental part: as §2, §1
Series [1] concerns the target T4, TcPRAC (Trypanosoma cruzi, UniProt Q4DA80).
T4 construct: made in house
As to the kind of experiment: D-AAO/HRP microplate test of racemisation inhibition. The note with it: concentration giving 50% inhibition of racemisation. The series is classed as biochemical. How it is done: (1) The volumes are indicated for a single well, but duplicates are mandatory. Leave enough raws of the microplate empty for standard and controls to be used in further steps. Distribute the following volumes per well reactions: • a) without inhibitor (Vol=QS 81 μl)
A range of concentrations between 5 mM and 1 mM can be planned for the inhibitor. It should be diluted in sodium acetate buffer 0.2 M pH 6.0.
• (2) Cover the microplate with an adhesive coverlid and leave for […] at 37° C. • (3) At the end of racemisation, 5.5 μl of 0.235M Pop are added in each reaction well of the microplate in order to shift pH from pH6.0 to pH 8.3.
It is used for assessing the amount of D-Proline formed after racemization. The standard range is made in microtubes, as follows:
• (3) Prepare a mixture containing the enzymes (D-AAO/HRP Mix), as follows: The amounts are given for one well, provided that the final volume will be 100 μl with the racemase products or the substrate:
This mixture is kept in the ice until use. • (4) The quantitation reaction starts when 13 μl of D-AAO/HRP mix is added to the reaction well. • (5) The microplate is covered with an adhesive coverlid and it is left in the dark at 37° C. between […] and 2 hours. The reaction can be monitored by eye whenever a color gradient matches the D-amino acid concentration of the standard dilutions. • (6) The microplate is read with a microplate spectrophotometer using a filter of at 490 nm.

In series [2] the target is T4, TcPRAC. The series can be described thus: Racemisation inhibition, detection with polarimeter. The series is classed as biochemical. How it is done: The reaction was stopped by incubating for 10 min at 80° C. and freezing. Water (1 ml) was then added, and the optical rotation was measured in a polarimeter 241 MC (Perkin Elmer, Montigny le Bretonneux, France) at a wavelength of 365 nm, in a cell with a path length of 10 cm, at a precision of 0.001 degree. […] All reagents were purchased from Sigma.

For another series, the system named is B cell. Conditions: cited from earlier work.
In series [3] the test system is non-infected monkey cell cultures.

T4 sequence (Q4DA80 32-423): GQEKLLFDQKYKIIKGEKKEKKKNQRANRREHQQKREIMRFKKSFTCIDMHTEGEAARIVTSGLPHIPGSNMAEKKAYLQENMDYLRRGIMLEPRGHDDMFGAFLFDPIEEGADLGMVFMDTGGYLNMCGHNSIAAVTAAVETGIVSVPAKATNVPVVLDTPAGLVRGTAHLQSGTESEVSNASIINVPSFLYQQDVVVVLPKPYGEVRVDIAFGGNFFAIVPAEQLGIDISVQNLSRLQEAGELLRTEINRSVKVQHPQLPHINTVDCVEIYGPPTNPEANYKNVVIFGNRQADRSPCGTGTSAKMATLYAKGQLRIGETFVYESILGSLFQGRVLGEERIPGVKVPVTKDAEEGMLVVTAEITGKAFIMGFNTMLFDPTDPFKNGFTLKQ
T1 sequence (P00371 whole entry): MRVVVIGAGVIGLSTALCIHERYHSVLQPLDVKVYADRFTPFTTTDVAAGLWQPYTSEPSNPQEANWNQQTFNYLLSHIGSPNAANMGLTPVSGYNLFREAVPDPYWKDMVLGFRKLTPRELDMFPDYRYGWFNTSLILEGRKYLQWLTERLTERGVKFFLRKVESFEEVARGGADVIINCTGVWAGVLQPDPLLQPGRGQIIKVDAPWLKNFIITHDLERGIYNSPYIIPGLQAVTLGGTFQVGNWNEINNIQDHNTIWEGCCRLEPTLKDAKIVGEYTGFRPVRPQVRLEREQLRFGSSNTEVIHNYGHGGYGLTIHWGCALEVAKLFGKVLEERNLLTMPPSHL
Chain of rTcPRACB (Q868H8 whole entry): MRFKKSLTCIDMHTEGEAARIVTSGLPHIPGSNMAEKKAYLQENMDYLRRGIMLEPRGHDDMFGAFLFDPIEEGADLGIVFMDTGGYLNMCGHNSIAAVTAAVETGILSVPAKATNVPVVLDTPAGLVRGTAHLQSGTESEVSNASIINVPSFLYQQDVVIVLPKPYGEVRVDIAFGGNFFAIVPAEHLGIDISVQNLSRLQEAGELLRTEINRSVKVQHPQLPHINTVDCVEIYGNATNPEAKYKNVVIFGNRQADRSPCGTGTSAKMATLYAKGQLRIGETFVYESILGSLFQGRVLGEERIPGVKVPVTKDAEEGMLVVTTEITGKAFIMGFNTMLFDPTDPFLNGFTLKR
T3 sequence (Q4DA80 32-423): as the sequence (Q4DA80 32-423) above

Regarding `O=C(O)[C@@H]1CCCN1` [L-proline], the values for the Km in the series with TcPRAC enzyme isoforms and on CsPR were 29 to 75 mM and 2.3 mM, respectively. For the same molecule, on D-AAO (equimolar mixture of D- and L-Proline versus D-Proline alone), the “effect on D-amino-oxidase activity” value is listed as “Inhibits”.

In the case of `O=C(O)c1ccc[nH]1` [PAC, pyrrole-2-carboxylic acid], the “influence on DAAO/HRP reaction” value at D-AAO (D-Proline 0.1 mM to 40 mM, OD 490 nm) is “does not influence”. For the same molecule, the pKi was 5.24 on rTcPRACA and 5.44 at rTcPRACB. The pIC50 is 4.35 and 4.30 against TcPRAC [1] (10 mM L-Proline); 3.77 on TcPRAC [1] (20 mM L-Proline); 3.66 on TcPRAC [1] (40 mM L-Proline); 3.00 against TcPRAC [2]. Moreover, the “effect of TcPRAC inhibition on TcPRAC B cell mitogenic ability” value in the series on B cell is “total loss”. Further, the “interference with cellular growth” value in series [3] is recorded as “do not interfere with cellular growth”.
